Tests used:
SMYD3 [1] = target: T1, SMYD3 (Homo sapiens (Human), UniProt Q9H7B4); assay: SMYD3 biochemical assay (SMYD3 enzyme assay on MEKK2 protein substrate, 3H-SAM scintillation proximity assay); details: read-out: SMYD3 Biochem IC50
Method in brief: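 Detection used scintillation proximity beads to capture ³H-methylated GST-MEKK2 after quench with 100 uM final cold SAM. The reaction was started by SAM/MEKK2 addition after a 30 min RT compound–enzyme preincubation. Enzyme was tag-free full-length human SMYD3 from E. coli, in buffer of 25 mM Tris-Cl pH 8.0, 1 mM TCEP, 0.005% BSG, 0.005% Tween 20.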

SMYD3 [2] = target: T1, SMYD3; assay: SMYD3 cell assay (Trimethyl-MEKK2 In-Cell Western in 293T/17 cells transfected with MEKK2-flag and SMYD3); type: cell-based; details: Table 3A; average of n = 1 to n = 50; read-out: SMYD3 cell IC50
Method in brief: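 Methanol-fixed cells stained in-cell Western for trimethyl-MEKK2 and anti-flag. Ratio-based % inhibition against DMSO and background controls; IC50 by non-linear regression, triplicate wells.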

[3] = test system: esophageal, liver and breast cancer cell lines; details: several esophageal, dose-dependent; cited from earlier work
[4] = Table 3A, average of n = 1 to n = 50

T1 sequence (Q9H7B4 whole entry): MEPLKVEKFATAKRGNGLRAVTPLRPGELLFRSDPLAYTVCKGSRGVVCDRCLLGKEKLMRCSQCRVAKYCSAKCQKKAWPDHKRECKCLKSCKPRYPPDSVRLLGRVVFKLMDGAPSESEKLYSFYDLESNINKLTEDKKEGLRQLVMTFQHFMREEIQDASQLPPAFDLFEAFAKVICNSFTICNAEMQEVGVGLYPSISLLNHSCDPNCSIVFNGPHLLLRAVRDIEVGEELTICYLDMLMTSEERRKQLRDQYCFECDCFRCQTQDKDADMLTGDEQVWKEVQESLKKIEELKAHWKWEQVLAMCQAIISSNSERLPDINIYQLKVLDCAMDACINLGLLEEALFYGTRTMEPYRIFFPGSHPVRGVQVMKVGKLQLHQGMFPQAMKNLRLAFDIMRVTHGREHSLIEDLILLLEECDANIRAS

Row | Structure (SMILES) | IC50 (SMYD3 [1]; [4]) [nM] | IC50 (SMYD3 [2]) [nM] | proliferation of cancer cell lines [3] | IC50 (SMYD3 [1]) [nM]
1 | O=C1Cc2cc(C(=O)N[C@H]3C[C@H]4CC[C@@H](C3)N4S(=O)(=O)C[C@H]3CCCNC3)c(Cl)cc2N1 [compound 598, 6-chloro-2-oxo-N-((1R,3S,5S)-8-((((S)-piperidin-3-yl)methyl)sulfonyl)-8-azabicyclo[3.2.1]octan-3-yl)indoline-5-carboxamide] | 4.12 | 1270 |  | 
2 | O=C1Cc2cc(C(=O)N[C@H]3C[C@H]4CC[C@@H](C3)N4S(=O)(=O)CCN3CCCC3)c(Cl)cc2N1 [compound 614, 6-chloro-2-oxo-N-((1R,3r,5S)-8-((2-(pyrrolidin-1-yl)ethyl)sulfonyl)-8-azabicyclo[3.2.1]octan-3-yl)indoline-5-carboxamide] | 46 | 380 |  | 
3 | CCc1cc(C(=O)N[C@@H]2CCN(S(=O)(=O)N3CCC(N)CC3)[C@@H](C)C2)ns1 [compound 629, N-((2S,4R)-1-(4-aminopiperidin-1-ylsulfonyl)-2-methylpiperidin-4-yl)-5-ethyl-1,2-thiazole-3-carboxamide] | 326 | 2080 |  | 
4 | CC(C)(N)c1ccc(S(=O)(=O)N2[C@@H]3CC[C@H]2C[C@@H](NC(=O)c2cc4c(cc2Cl)NC(=O)C4)C3)cc1 [compound 613, N-((1R,3r,5S)-8-((4-(2-aminopropan-2-yl)phenyl)sulfonyl)-8-azabicyclo[3.2.1]octan-3-yl)-6-chloro-2-oxoindoline-5-carboxamide] | 37.1 | 1770 |  | 
5 | NC1CCN(S(=O)(=O)N2[C@@H]3CC[C@H]2C[C@@H](NC(=O)c2cc4c(cc2F)NC(=O)C4)C3)CC1 [compound 576, N-((1R,3r,5S)-8-((4-aminopiperidin-1-yl)sulfonyl)-8-azabicyclo[3.2.1]octan-3-yl)-6-fluoro-2-oxoindoline-5-carboxamide] | 0.49 | 525 |  | 
6 | Cc1cn(CCN2CCN(c3ccccc3-c3cc(C#N)cc(C(=O)NCCCN4CCCC4)c3)CC2)c2ccccc12 [LLY-507] |  |  | inhibited the proliferation | 
7 | C[C@H]1CN(S(=O)(=O)N2CCC(N)CC2)CCC1NC(=O)c1cc2c(cc1Cl)NC(=O)C2 (stereo partly drawn) [compound 603, N-((3S)-1-((4-aminopiperidin-1-yl)sulfonyl)-3-methylpiperidin-4-yl)-6-chloro-2-oxoindoline-5-carboxamide] | 8.53 | 2680 |  | 
8 | C[C@H]1C[C@@H](NC(=O)c2nnc(C3CC3)s2)CCN1S(=O)(=O)N1CCC(N)CC1 [compound 607, N-((2S,4S)-1-((4-aminopiperidin-1-yl)sulfonyl)-2-methylpiperidin-4-yl)-5-cyclopropyl-1,3,4-thiadiazole-2-carboxamide] | 18.1 | 205 |  | 
9 | CC(=O)Nc1ccc(S(=O)(=O)N2CCC(NC(=O)c3ccc4c(c3)CC(=O)N4)CC2)cc1 [compound 643, N-(1-((4-acetamidophenyl)sulfonyl)piperidin-4-yl)-2-oxoindoline-5-carboxamide] | 16900 | ≥ 10000 |  | 
10 | O=C1Cc2cc(C(=O)N[C@H]3C[C@H]4CC[C@@H](C3)N4S(=O)(=O)CC3CCCNC3)ccc2N1 (stereo partly drawn) [compound 590, 2-oxo-N-((1R,3r,5S)-8-((piperidin-3-ylmethyl)sulfonyl)-8-azabicyclo[3.2.1]octan-3-yl)indoline-5-carboxamide] |  | 768 |  | 2.14
11 | N[C@H]1CC[C@H](S(=O)(=O)N2[C@@H]3CC[C@H]2C[C@@H](NC(=O)c2ccc4c(c2)OC(F)(F)O4)C3)CC1 [compound 623, N-((1R,3R,5S)-8-(((1r,4R)-4-aminocyclohexyl)sulfonyl)-8-azabicyclo[3.2.1]octan-3-yl)-2,2-difluorobenzo[d][1,3]dioxole-5-carboxamide] | 136 | 896 |  | 

From patent US10266526B2, “Substituted 1,2,3-triazoles as SMYD inhibitors for treating cancer” (EPIZYME, INC., priority 2014, dated 2019)
